Data as given in ChEMBL document CHEMBL6096723, “Discovery of novel capsaicin analogs as TRPV1 inhibitors for the treatment of idiopathic pulmonary fibrosis” (Eur J Med Chem, 2025).
Active and inactive are the calls of the source. The calls are words filed in the database; no cut-off is given here.

Columns and labels:
[1] = Acute toxicity in Kunming mouse assessed as organ lesions in kidney at 180 mg/kg, ip measured after 14 days by H and E staining based assay; assay type: organism-based; conditions: in vivo, 336 h, time 14 day
[2] = AUMC(0 to infinity) in Sprague-Dawley rat at 50 mg/kg, po measured upto 4 hrs by UPLC-MS/MS analysis; assay type: ADME, organism-based; conditions: in vivo
[3] = AUMC(0 to infinity) in Sprague-Dawley rat at 50 mg/kg, ip measured upto 4 hrs by UPLC-MS/MS analysis; assay type: ADME, organism-based; conditions: in vivo
[4] = Acute toxicity in Kunming male mouse assessed as Urea level at 180 mg/kg, ip measured after 14 days (reference value: 6.54 mmol/L); assay type: organism-based; conditions: in vivo, 336 h, time 14 day
Mus musculus [5] = experiment: Anti-pulmonary fibrotic activity against bleomycin-induced pulmonary fibrosis mouse model assessed as inhibition of Smad2 phosphorylation in lung tissue at 10 to 20 mg/kg, ip administered every alternative day for 8 to 21 days after modeling by immunohistochemical staining based assay; assay type: functional, organism-based; conditions: dose 10-20 mg/kg, time 8-21 day
[6] = Oral bioavailability in Sprague-Dawley rat at 50 mg/kg measured upto 4 hrs by UPLC-MS/MS analysis; assay type: ADME, organism-based; conditions: in vivo
[7] = Acute toxicity in Kunming male mouse assessed as Aspartate aminotransferase (AST) level at 180 mg/kg, ip measured after 14 days (reference value: 116.7 U/L); assay type: organism-based; conditions: in vivo, 336 h, time 14 day
[8] = Clearance in Sprague-Dawley rat at 50 mg/kg, iv measured upto 4 hrs by UPLC-MS/MS analysis; assay type: ADME, organism-based; conditions: in vivo
[9] = VRT(0 to infinity) in Sprague-Dawley rat at 50 mg/kg, po measured upto 4 hrs by UPLC-MS/MS analysis; assay type: ADME, organism-based; conditions: in vivo
[10] = Acute toxicity in Kunming male mouse assessed as Uric acid (UA) level at 180 mg/kg, ip measured after 14 days (reference value: 264.8 micromol/L); assay type: organism-based; conditions: in vivo, 336 h, time 14 day
[11] = VRT(0 to t) in Sprague-Dawley rat at 50 mg/kg, iv measured upto 4 hrs by UPLC-MS/MS analysis; assay type: ADME, organism-based; conditions: in vivo
[12] = Acute toxicity in Kunming male mouse assessed as Total bilirubin (T-Bil) level at 180 mg/kg, ip measured after 14 days (reference value: 12.99 micromol/L); assay type: organism-based; conditions: in vivo, 336 h, time 14 day
[13] = target: Transient receptor potential cation channel subfamily V member 1 (Homo sapiens) (UniProt Q8NER1); experiment: Inhibition of TRPV1 (unknown origin) overexpressed in si-TRPV1-2 transfected HEK-293T cells assessed as decrease in TGFbeta-induced alpha-SMA expression at 10 uM measured after 48 hrs incubation by Western blotting analysis; assay type: cell-based
Chain of Transient receptor potential cation channel subfamily V member 1 (Homo sapiens) (Q8NER1 whole entry): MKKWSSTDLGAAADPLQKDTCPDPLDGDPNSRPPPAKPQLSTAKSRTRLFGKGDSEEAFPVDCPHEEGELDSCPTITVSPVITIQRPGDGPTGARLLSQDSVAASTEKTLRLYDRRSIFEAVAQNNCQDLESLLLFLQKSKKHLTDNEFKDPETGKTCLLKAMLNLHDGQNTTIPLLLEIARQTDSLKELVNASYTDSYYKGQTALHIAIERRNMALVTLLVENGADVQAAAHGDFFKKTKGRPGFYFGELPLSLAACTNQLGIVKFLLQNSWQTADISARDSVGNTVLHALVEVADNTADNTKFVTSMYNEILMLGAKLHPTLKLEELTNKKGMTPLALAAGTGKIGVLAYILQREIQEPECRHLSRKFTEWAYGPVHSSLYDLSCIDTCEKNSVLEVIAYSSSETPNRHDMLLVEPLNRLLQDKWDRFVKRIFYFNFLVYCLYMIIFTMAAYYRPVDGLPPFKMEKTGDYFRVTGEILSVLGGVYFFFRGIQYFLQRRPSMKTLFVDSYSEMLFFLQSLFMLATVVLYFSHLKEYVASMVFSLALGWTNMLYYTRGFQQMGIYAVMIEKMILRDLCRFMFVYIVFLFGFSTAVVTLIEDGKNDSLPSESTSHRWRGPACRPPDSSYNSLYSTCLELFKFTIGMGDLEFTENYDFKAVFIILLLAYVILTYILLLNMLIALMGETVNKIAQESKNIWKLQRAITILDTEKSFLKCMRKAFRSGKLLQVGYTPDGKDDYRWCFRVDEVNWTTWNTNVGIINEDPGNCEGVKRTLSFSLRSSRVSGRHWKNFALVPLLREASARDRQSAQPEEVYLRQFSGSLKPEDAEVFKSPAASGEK

NIH3T3 [14] = experiment: Inhibition of TGFbeta-induced ERK1/2 phosphorylation in mouse NIH3T3 cells at 1 to 10 uM by Western blot analysis; assay type: functional, cell-based; conditions: dose 1-10 µM
[15] = Acute toxicity in Kunming male mouse assessed as Alanine aminotransferase (ALT) level at 180 mg/kg, ip measured after 14 days (reference value: 55.3 U/L); assay type: organism-based; conditions: in vivo, 336 h, time 14 day
[16] = AUC(0 to t) in Sprague-Dawley rat at 50 mg/kg, ip measured upto 4 hrs by UPLC-MS/MS analysis; assay type: ADME, organism-based; conditions: in vivo
[17] = Clearance in Sprague-Dawley rat at 50 mg/kg, ip measured upto 4 hrs by UPLC-MS/MS analysis; assay type: ADME, organism-based; conditions: in vivo
Rattus norvegicus = experiment: Cz in Sprague-Dawley rat at 50 mg/kg, po measured upto 4 hrs by UPLC-MS/MS analysis; assay type: ADME, organism-based; conditions: in vivo
[18] = VRT(0 to infinity) in Sprague-Dawley rat at 50 mg/kg, iv measured upto 4 hrs by UPLC-MS/MS analysis; assay type: ADME, organism-based; conditions: in vivo
[19] = Apparent volume of distribution in Sprague-Dawley rat at 50 mg/kg, ip measured upto 4 hrs by UPLC-MS/MS analysis; assay type: ADME, organism-based; conditions: in vivo
[20] = Half life in Sprague-Dawley rat at 50 mg/kg, iv measured upto 4 hrs by UPLC-MS/MS analysis; assay type: ADME, organism-based; conditions: in vivo
[21] = Acute toxicity in Kunming mouse assessed as organ lesions in lung at 180 mg/kg, ip measured after 14 days by H and E staining based assay; assay type: organism-based; conditions: in vivo, 336 h, time 14 day
NIH3T3 [22] = experiment: Antifibrotic activity in mouse NIH3T3 cells assessed as decrease in TRPV1 expression measured after 48 hrs incubation by Western blotting analysis; assay type: functional, cell-based; conditions: dose 1-10 µM
[23] = Apparent volume of distribution in Sprague-Dawley rat at 50 mg/kg, po measured upto 4 hrs by UPLC-MS/MS analysis; assay type: ADME, organism-based; conditions: in vivo
[24] = Acute toxicity in Kunming male mouse assessed as Albumin (ALB) level at 180 mg/kg, ip measured after 14 days (reference value: 32.6 g/L); assay type: organism-based; conditions: in vivo, 336 h, time 14 day
[25] = AUC(0 to t) in Sprague-Dawley rat at 50 mg/kg, po measured upto 4 hrs by UPLC-MS/MS analysis; assay type: ADME, organism-based; conditions: in vivo
Mus musculus [26] = experiment: Anti-fibrotic activity against bleomycin-induced pulmonary fibrosis mouse model assessed as increase in forced vital capacity (FVC) at 10 to 20 mg/kg, ip administered every alternative day for 8 to 21 days after modeling; assay type: functional, organism-based; conditions: dose 10-20 mg/kg, time 8-21 day
[27] = Cmax in Sprague-Dawley rat at 50 mg/kg, ip measured upto 4 hrs by UPLC-MS/MS analysis; assay type: ADME, organism-based; conditions: in vivo
NIH3T3 [28] = experiment: Inhibition of TGFbeta-induced Smad3 phosphorylation in mouse NIH3T3 cells by Western blot analysis; assay type: functional, cell-based; conditions: dose 1-10 µM
[29] = Acute toxicity in Kunming female mouse assessed as Aspartate aminotransferase (AST) level at 180 mg/kg, ip measured after 14 days (reference value: 116.2 U/L); assay type: organism-based; conditions: in vivo, 336 h, time 14 day
[30] = AUC(0 to infinity) in Sprague-Dawley rat at 50 mg/kg, iv measured upto 4 hrs by UPLC-MS/MS analysis; assay type: ADME, organism-based; conditions: in vivo
[31] = Acute toxicity in Kunming female mouse assessed as Alanine aminotransferase (ALT) level at 180 mg/kg, ip measured after 14 days (reference value: 33.7 U/L); assay type: organism-based; conditions: in vivo, 336 h, time 14 day
NIH3T3 [32] = experiment: Inhibition of TGFbeta-induced Smad2 phosphorylation in mouse NIH3T3 cells by Western blot analysis; assay type: functional, cell-based; conditions: dose 1-10 µM
[33] = VRT(0 to t) in Sprague-Dawley rat at 50 mg/kg, ip measured upto 4 hrs by UPLC-MS/MS analysis; assay type: ADME, organism-based; conditions: in vivo
[34] = Cmax in Sprague-Dawley rat at 50 mg/kg, po measured upto 4 hrs by UPLC-MS/MS analysis; assay type: ADME, organism-based; conditions: in vivo
NIH3T3 [35] = experiment: Inhibition of TGFbeta-induced JNK phosphorylation in mouse NIH3T3 cells at 1 to 10 uM by Western blot analysis; assay type: functional, cell-based; conditions: dose 1-10 µM
[36] = AUMC(0 to t) in Sprague-Dawley rat at 50 mg/kg, po measured upto 4 hrs by UPLC-MS/MS analysis; assay type: ADME, organism-based; conditions: in vivo
Mus musculus [37] = experiment: Anti-pulmonary fibrotic activity against bleomycin-induced pulmonary fibrosis mouse model assessed as inhibition of alpha-SMA expression in lung tissue at 10 to 20 mg/kg, ip administered every alternative day for 8 to 21 days after modeling by immunohistochemical staining based assay; assay type: functional, organism-based; conditions: dose 10-20 mg/kg, time 8-21 day
[38] = AUC(0 to infinity) in Sprague-Dawley rat at 50 mg/kg, po measured upto 4 hrs by UPLC-MS/MS analysis; assay type: ADME, organism-based; conditions: in vivo
Mus musculus [39] = experiment: Anti-pulmonary fibrotic activity against bleomycin induced pulmonary fibrosis mouse model assessed as reduction in alveolar structure at 10 to 20 mg/kg, ip administered every alternative day for 8 to 21 days after modeling; assay type: functional, organism-based; conditions: dose 10-20 mg/kg, time 8-21 day

O=C(/C=C/c1ccc(O)c(O)c1)CCCCc1ccccc1
Activity [1]: Non-toxic | AUMC [2]: 138.748 ug/L.hr | AUMC [3]: 628.01 ug/L.hr | Activity [4]: 9.56 mmol/L | Activity (Mus musculus [5]): Active | bioavailability [6]: 6.5% | Activity [7]: 125.2 U/L | CL [8]: 125 mL/min/kg | VRT [9]: 1.28 hr2 | Activity [10]: 325.4 µmol/L | VRT(t) [11]: 0.569 hr2 | Activity [12]: 10.43 µmol/L | inhibition [13]: inactive | inhibition (NIH3T3 [14]): Active | Activity [15]: 34.5 U/L | AUC(0-t) at 4 h [16]: 1100 ng·h/mL | CL [17]: 305.45 mL/min/kg | Cz (Rattus norvegicus): 2.54 µg/L | VRT [18]: 0.779 hr2 | Vz [19]: 9.28 L/kg | half-life [20]: 39.4 min | Activity [21]: Non-toxic | Activity (NIH3T3 [22]): Dose-dependent-effect; Compound More Potent Than Nintedanib | Vz [23]: 237.78 L/kg | Activity [24]: 31.2 g/L | AUC(0-t) at 4 h [25]: 99 ng·h/mL | Activity (Mus musculus [26]): Active | Cmax [27]: 1490 ng/mL | inhibition (NIH3T3 [28]): Dose-dependent-effect; Compound Showed Superior Inhibition Effect Than Nintedanib | Activity [29]: 160.5 U/L | AUC [30]: 2670.601 ng·h/mL | Activity [31]: 40.1 U/L | inhibition (NIH3T3 [32]): Dose-dependent-effect; Compound Showed Superior Inhibition Effect Than Nintedanib | VRT(t) [33]: 0.53 hr2 | Cmax [34]: 48.9 ng/mL | inhibition (NIH3T3 [35]): Active | AUMCt [36]: 121.11 ug/L.hr | Activity (Mus musculus [37]): Active | AUC [38]: 102.37 ng·h/mL | Activity (Mus musculus [39]): Active
